Measured values reported in US20140303164A1, “THERAPEUTIC COMPOUNDS” (Gilead Sciences, Inc., priority 2013, published 2014).

Test system: HIV-IIIb
Experiment: Test A: Antiviral Assay in MT4 Cells
Type: cell-based, HIV-1
Settings: for inhibition at 0.2 µM / inhibition at 2 µM: Human immunodeficiency virus 1, IIIB, MT4, 120 h; for inhibition at 0.2 µM: read-out: % inhibition at 0.2 μM; for inhibition at 2 µM: read-out: % inhibition at 2 μM
Experimental: Test A: Antiviral Assay in MT4 Cells
MT-4 cells were next mixed with HIV-IIIb at an m.o.i of 0.003 for 1 hour, after which time 35 μL of virus/cell mixture (2000 cells) was immediately added to each well containing 40 μL of diluted compound. The plates were then incubated at 37° C. for 5 days. […] Cell lysis was carried out by incubating at room temperature for 10 min and then chemiluminescence was read.

Row | SMILES | Response at 0.2 μM (percent inhibition of virus-induced cell killing at 0.2 μM, comparison with previously published compounds (WO 2013/006738)) [%] | Response at 2 μM (percent inhibition of virus-induced cell killing at 2 μM, comparison with previously published compounds (WO 2013/006738)) [%] | inhibition at 0.2 µM [%] | inhibition at 2 µM [%]
1 | CC(C)(O)C#Cc1ccc(-c2ccc(F)c(C(N)=O)c2)c([C@H](Cc2cc(F)cc(F)c2)NC(=O)Cn2nc(C(F)(F)F)c3c2C(F)(F)[C@@H]2C[C@H]32)n1 [Compound 18, 5-(2-((S)-1-(2-((3bS,4aR)-5,5-difluoro-3-(trifluoromethyl)-3b,4,4a,5-tetrahydro-1H-cyclopropa[3,4]cyclopenta[1,2-c]pyrazol-1-yl)acetamido)-2-(3,5-difluorophenyl)ethyl)-6-(3-hydroxy-3-methylbut-1-yn-1-yl)pyridin-3-yl)-2-fluorobenzamide] | 96 | 90 |  | 
2 | Cn1nc(NS(C)(=O)=O)c2c(Cl)ccc(-c3ccc(C#CC(C)(O)C(F)F)nc3[C@H](Cc3cc(F)cc(F)c3)NC(=O)Cn3nc(C(F)F)c4c3C(F)(F)[C@@H]3C[C@H]43)c21 (stereo partly drawn) [Compound 169, N-((1S)-1-(3-(4-chloro-1-methyl-3-(methylsulfonamido)-1H-indazol-7-yl)-6-(4,4-difluoro-3-hydroxy-3-methylbut-1-yn-1-yl)pyridin-2-yl)-2-(3,5-difluorophenyl)ethyl)-2-((3b-S,4aR)-3-(difluoromethyl)-5,5-difluoro-3b,4,4a,5-tetrahydro-1H-cyclopropa[3,4]cyclopenta[1,2-c]pyrazol-1-yl)acetamide] |  |  | 92 | 92
3 | Cn1nc(NS(C)(=O)=O)c2c(Cl)ccc(-c3ccc(C#CC(C)(C)O)nc3[C@H](Cc3cc(F)cc(F)c3)NC(=O)Cn3nc(C(F)(F)F)c4c3C(F)(F)[C@@H]3C[C@H]43)c21 [Compound 78, N—((S)-1-(3-(4-chloro-1-methyl-3-(methylsulfonamido)-1H-indazol-7-yl)-6-(3-hydroxy-3-methylbut-1-yn-1-yl)pyridin-2-yl)-2-(3,5-difluorophenyl)ethyl)-2-((3b-S,4aR)-5,5-difluoro-3-(trifluoromethyl)-3b,4,4a,5-tetrahydro-1H-cyclopropa[3,4]cyclopenta[1,2-c]pyrazol-1-yl)acetamide] |  |  | 98 | 98
4 | Cn1nc(N[S+](C)[O-])c2c(Cl)ccc(-c3ccc(C#CC(C)(C)O)nc3[C@H](Cc3cc(F)cc(F)c3)NC(=O)Cn3nc(C(F)F)c4c3C(F)(F)[C@@H]3C[C@H]43)c21 (stereo partly drawn) [Compound 180C, N-((1S)-1-(3-(4-chloro-1-methyl-3-(methylsulfinamido)-1H-indazol-7-yl)-6-(3-hydroxy-3-methylbut-1-yn-1-yl)pyridin-2-yl)-2-(3,5-difluorophenyl)ethyl)-2-((3b-S,4aR)-3-(difluoromethyl)-5,5-difluoro-3b,4,4a,5-tetrahydro-1H-cyclopropa[3,4]cyclopenta[1,2-c]pyrazol-1-yl)acetamide] |  |  | 100 | 100
5 | Cc1ccc(-c2ccc(C#CC(C)(C)O)nc2[C@H](Cc2cc(F)cc(F)c2)NC(=O)Cn2nc(C(F)F)c3c2C(F)(F)[C@@H]2C[C@H]32)c2c1c(NS(C)(=O)=O)nn2C [Compound 112D, 2-((3b-S,4aR)-3-(difluoromethyl)-5,5-difluoro-3b,4,4a,5-tetrahydro-1H-cyclopropa[3,4]cyclopenta[1,2-c]pyrazol-1-yl)-N—((S)-2-(3,5-difluorophenyl)-1-(3-(1,4-dimethyl-3-(methylsulfonamido)-1H-indazol-7-yl)-6-(3-hydroxy-3-methylbut-1-yn-1-yl)pyridin-2-yl)ethyl)acetamide] |  |  | 97 | 97
6 | CC(C)(O)C#Cc1ccc(-c2ccc3c(c2)C(=O)NC32CC2)c([C@H](Cc2cc(F)cc(F)c2)NC(=O)Cn2nc(C(F)(F)F)c3c2C(F)(F)[C@@H]2C[C@H]32)n1 [Compound 3D, 2-((3bS,4aR)-5,5-difluoro-3-(trifluoromethyl)-3b,4,4a,5-tetrahydro-1H-cyclopropa[3,4]cyclopenta[1,2-c]pyrazol-1-yl)-N—((S)-2-(3,5-difluorophenyl)-1-(6-(3-hydroxy-3-methylbut-1-yn-1-yl)-3-(3′-oxospiro[cyclopropane-1,1′-isoindolin]-5′-yl)pyridin-2-yl)ethyl)acetamide] |  |  | 82 | 
